Measured values reported in publication PMC5663397, “A composite docking approach for the identification and characterization of ectosteric inhibitors of cathepsin K” (PLoS ONE, 2017).
Values joined by “and” are separate entries in the source; they are usually repeats but may differ in a detail not shown here. Equal entries are not always repeated. “Also recorded” adds a separate entry of the source. Where two headings read alike, the source gives them in different places.

Legend:
CatK [1] = molecular target: T1, CatK (Homo sapiens, UniProt P43235); assay: CatK collagenase assay (type I collagen degradation, SDS-PAGE); assay type: biochemical
T1 construct: made in house; host or cells: Pichia pastoris
T1 sequence (P43235 115-329): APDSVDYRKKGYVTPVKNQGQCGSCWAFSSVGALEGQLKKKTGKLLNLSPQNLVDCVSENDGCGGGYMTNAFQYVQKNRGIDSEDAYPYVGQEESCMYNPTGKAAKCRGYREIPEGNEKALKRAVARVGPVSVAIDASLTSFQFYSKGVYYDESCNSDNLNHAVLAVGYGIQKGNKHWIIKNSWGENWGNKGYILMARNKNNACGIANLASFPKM
Protocol: The collagenase inhibitory activities of all identified compounds were measured using a collagen degradation assay. Soluble bovine type I collagen (0.6 mg/mL) was incubated with 400 nM recombinant human CatK, in the presence or absence of 200 nM chondroitin 4-sulfate (C4-S) in 100 mM sodium acetate buffer, pH 5.5, containing 2.5 mM dithiothreitol (DTT) (Sigma-Aldrich Canada, Oakville, Ontario, Canada) and 2.5 mM ethylenediametetraacetate (EDTA) (Sigma-Aldrich). In the experiments involving detergent to minimize inhibitor aggregation, 0.001% or 0.005% Triton X-100 was added to the buffer with the inhibitor. The recombinant human CatK was expressed in Pichia pastoris and purified as previously described. Selected compounds identified by molecular docking were ordered from the National Cancer Institute through the Developmental Therapeutics Program (Rockville, MD). All compounds were dissolved in DMSO as a 20 or […] stock. […] After incubation at 28°C for 4 hours, 1 μM of E-64 was added to block the residual activity of CatK.
(§1) Digestion with MMP-1 was performed in 50 mM Tris-HCl, pH 7.4, containing 200 mM NaCl and 5 mM CaCl2 at 28°C for 4 h. Reactions were stopped by adding 25 mM EDTA as previously described. Samples were analyzed using 10% SDS-PAGE gels and stained with Coomassie. The resulting bands of α-collagen chains were quantitatively assessed using ImageJ (Version 1.5) and IC50 graphs were plotted using GraphPad Prism (GraphPad Software, Version 5.0, La Jolla California USA).

CatK [2] = molecular target: T1, CatK; assay: Z-Phe-Arg-MCA cleavage assay with CatK; assay type: biochemical; conditions: 100 μM inhibitor, 5 nM CatK, 5 μM substrate, pH 5.5
Protocol: The enzymatic activity of CatK was monitored by measuring the rate of release of the fluorogenic group, amino-methyl coumarin at an excitation wavelength of 380 nm and an emission wavelength of 450 nm using a Molecular Devices SpectraMax Gemini spectrofluorometer. Inhibitors were added prior to measurement of enzyme activity. The assays were performed at 25°C at a fixed enzyme concentrations (5 nM) and substrate concentration (5 μM) in 100 mM sodium acetate buffer, pH 5.5, containing 2.5 mM DTT and 2.5 mM EDTA. Z-Phe-Arg-MCA hydrolysis with trypsin was carried out in 50 mM Tris-HCl, pH 8.8 at 10 nM enzyme concentration.

MMP-1 [3] = molecular target: T2, MMP-1 (Homo sapiens, UniProt P03956); assay: Collagen digestion with MMP-1; assay type: biochemical; conditions: 50 μM inhibitor, 400 nM MMP-1
T2 sequence (P03956 100-469): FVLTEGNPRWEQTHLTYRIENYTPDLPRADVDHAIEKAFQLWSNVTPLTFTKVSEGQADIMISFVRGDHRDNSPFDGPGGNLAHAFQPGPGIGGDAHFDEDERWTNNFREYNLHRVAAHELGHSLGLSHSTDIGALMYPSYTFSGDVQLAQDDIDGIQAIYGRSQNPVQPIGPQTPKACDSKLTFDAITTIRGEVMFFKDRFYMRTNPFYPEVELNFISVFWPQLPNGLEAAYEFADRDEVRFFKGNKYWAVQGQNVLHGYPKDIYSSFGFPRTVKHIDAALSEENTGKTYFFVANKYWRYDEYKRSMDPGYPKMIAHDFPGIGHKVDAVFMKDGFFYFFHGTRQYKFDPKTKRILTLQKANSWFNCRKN
Protocol: as §1

MMP-1 [4] = molecular target: T2, MMP-1; assay: Gelatin degradation assay with MMP-1; assay type: biochemical; conditions: 50 μM inhibitor, 10 nM MMP-1
Protocol: Gelatin (0.6 mg/mL) degradation assays were performed in the same manner as the collagen degradation experiments with 10 nM enzyme and were incubated at 37°C for one hour at the appropriate pH values for the individual proteases (CatK, pH 5.5; MMP-1, pH 7.4; trypsin, pH 8.8).

human osteoclasts [5] = assay: Human osteoclast bone resorption assay on bone slices; assay type: cell-based; conditions: 1 μM inhibitor, 72 h, versus untreated
Protocol: (§2) Osteoclasts were generated from mononuclear cells isolated from human bone marrow tissue (Lonza, Walkersville, MD). The bone marrow cells were centrifuged at 400 g for 5 min and the pellet was re-suspended in 10 mL α-MEM (α-Minimal Essential Media) and layered on 10 ml Ficoll-Plaque media solution. After centrifugation at 500 g for 30 min, the white interface containing the monocytes was harvested and washed twice with α-MEM. Cells were cultured in α-MEM containing 10% FBS and 25 ng/mL M-CSF for 24 hours and then cultured in 25 ng/mL RANKL and 25 ng/mL M-CSF for 7 days. Differentiated osteoclasts (100,000 cells per slice) were then seeded on each bone slice (5.5 mm diameter and 0.4 mm thickness; self-made) in the presence or absence of inhibitors and incubated for 72 hours at 5% CO2 and 37°C with the DMSO concentration at 0.1%. The inhibitor concentration range tested varied between 50 nM to 3 μM.
(§3) To compare the effects of the compounds on cell survival, the metabolic activity of osteoclasts was determined using the CellTiter-Blue Viability Assay (Promega, Madison, WI, USA). Bone slices from each condition (inhibitor-treated and control groups) were fixed in 4% formaldehyde and subsequently stained for tartrate-resistant acid phosphatase (TRAcP) activity (Acid Phosphatase, Leukocyte (TRAP) Kit; Sigma-Aldrich). Aliquots from cell culture media were used to determine the CTx-I concentration (MyBiosource ELISA kit, San Diego, CA). CTx-I is a CatK-specific C-terminal cleavage product of triple helical type I collagen. The total number of osteoclasts per bone slice was determined after TRAcP staining. Cells with ≥2 nuclei were counted as osteoclasts. After 72 h, bone slices from each condition were incubated in filtered water for cell lysis and cells were removed using a cotton stick. Subsequently the resorption cavities were stained with toluidine blue and observed by light microscopy. The number of resorption events and eroded bone surface area were determined as previously described. All light microscopic analyses were performed using a Nikon Eclipse LV100 microscope and a Nikon Eclipse Ci microscope.

human osteoclasts [6] = assay: Osteoclast survival: CellTiter-Blue metabolic activity and osteoclast count after TRAcP staining; assay type: cell-based; conditions: compared with untreated cells
Protocol: as §2, §3

quinone oxidoreductase = test system: quinone oxidoreductase; parameters: method as in PMID 21859103; conditions: cited from earlier work

IC50 (CatK [1]; 400 nM CatK, soluble bovine type I collagen 0.6 mg/mL, pH 5.5, 28°C, 4 h, read-out: Collagenase IC50): < 20 µM and 4.9 µM and ~5 µM
IC50 (CatK [1]; Collagenase IC50 with 0.005% Triton X-100, in the presence of detergent, 0.005% Triton X-100): 5.2 ± 1.5 µM
Collagenase IC50 with 0.005% Triton X-100 (CatK [1]; in the presence of detergent, 0.005% Triton X-100): not significantly different
inhibition at 100 µM (CatK [2]): 5 ± 2.7%
Compound: CN(C)CCCNc1ccc2ncn3c4ccccc4c(=O)c1c23 [compound 3, 5-(3-(dimethylamino)propylamino)-6H-imidazo[4,5,1-de]acridin-6-one]
inhibitory activity towards the collagenase activity of MMP-1 (MMP-1 [3]): no inhibitory activity; also recorded: did not show inhibition
inhibitory activity for the gelatinase activity of MMP-1 (MMP-1 [4]): no inhibitory activity; also recorded: did not show inhibition
Number of trenches (human osteoclasts [5]): significant reduction; also recorded: significantly reduced
percentage of eroded surface area / total eroded surface (human osteoclasts [5]): significant reduction; also recorded: significantly reduced
Metabolic activity of osteoclasts (human osteoclasts [6]; CellTiter-Blue): no significant differences
number of osteoclasts (human osteoclasts [6]; TRAcP staining): no significant differences
activity in an inhibitor screen of a quinone oxidoreductase (quinone oxidoreductase): active
